Measurements: PMC12115147, “Identification of 3-[(4-Acetylphenyl)(4-Phenylthiazol-2-Yl)Amino]Propanoic Acid Derivatives as Promising Scaffolds for the Development of Novel Anticancer Candidates Targeting SIRT2 and EGFR” (Pharmaceuticals, 2025)
Read-outs that look alike come from different tables or passages of the source.

Legend:
[1] = system: A549 human lung adenocarcinoma cells; settings: for A549 cell viability: 100 µM
Description: (§2) The dissolved compounds were then manually dispensed into deep 96-well plates, sealed, and stored at −80 °C until the day of the experiment. For the in vitro antiproliferative activity screening, the compounds were thawed at room temperature, protected from light, and the aliquots were diluted in complete cell culture media to achieve a final concentration of 100 µM and used for the in vitro assays.
(§3) All cells were cultivated in Dulbecco’s Modified Eagle Medium/Nutrient Mixture F-12 (DMEM/F-12) (Gibco, Waltham, MA, USA), 10% fetal bovine serum (FBS) (Gibco, Waltham, MA, USA), 100 U/mL penicillin, and 100 μg/mL streptomycin (P/S) (Gibco, Waltham, MA, USA). Culturing conditions were maintained at 37 °C with a humidified atmosphere containing 5% CO2. The culture medium was refreshed every 2–3 days, and cells were passaged upon reaching 70–80% confluence.
(§4) The in vitro inhibitory effects of the compounds were assessed using the MTT assay [40, 41, 42, 43, 44]. Briefly, cells were plated in 96-well plates at a density of 1 × 10^4 cells per well. After allowing the cells to adhere overnight at 37 °C in 5% CO2, they were treated with compounds at concentration of 100 µM in triplicate. Following a 20 h incubation, MTT reagent was added, and the cells were further incubated for 4 h. The resulting formazan was solubilized in anhydrous DMSO, and absorbance was measured at 570 nm using a microplate reader. Cell viability was calculated using the following formula: ([AE − AB]/[AC − AB]) × 100%, where AE, AC, and AB represent the absorbance values of experimental samples, untreated controls, and blank wells, respectively. Data analysis was performed using GraphPad Prism or QuickCalcs (2.0 version).
(§5) The IC50 values, defined as the concentration of compound required to reduce cell viability by 50%, were determined using a dose–response curve. The data were fitted to a nonlinear regression model (GraphPad Prism version 9.0, GraphPad Software, San Diego, CA, USA) to calculate the IC50 values for each compound tested in triplicate.

[2] = system: HEK293 human embryonic kidney cells; experiment: MTT cytotoxicity in non-cancerous HEK293 cells; assay type: cell-based; settings: 24 h
Description: as §3, §4, §5

[3] = system: A549 human lung adenocarcinoma cells; experiment: cells; settings: A549, 24 h; for viability at 100 µM: read-out: A549 cell viability
Description: as §2, §3, §4, §5

[4] = system: A549 agarose-based spheroids; experiment: LDH release cytotoxicity assay in A549 3D spheroids; assay type: cell-based, human; settings: 100 µM, 24 h
Description: (§1) A549 tumor spheroids were generated using an agarose-based technique with modifications. A549 cells were plated at a density of 2.5 × 10^5 cells/well in 96-well plates pre-coated with 50 µL of 1% agarose in Dulbecco’s Phosphate-Buffered Saline (DPBS). The plates were incubated for 48 h to allow spheroid formation. After 48 h, the spheroids were treated with 100 µM of compounds dissolved in DMEM/F12 supplemented with 10% FBS and 0.25% DMSO for 24 h.
A549 tumor spheroids were generated in 96-well plates pre-coated with 50 µL of 1% agarose in Dulbecco’s Phosphate-Buffered Saline (DPBS), as described previously. After 48 h of spheroid formation, the spheroids were treated with compounds dissolved in DMEM/F12 supplemented with 10% FBS and 0.25% DMSO. After a 24 h incubation, spheroid-conditioned media were collected by centrifuging the plates at 1000× g for 2 min to remove the spheroids. Then, 50 µL of the supernatant was transferred to a new 96-well plate and mixed with LDH assay reagent (Pierce LDH Cytotoxicity Assay Kit, Thermo Fisher Scientific, Waltham, MA, USA) according to the manufacturer’s instructions. A commercial maximum LDH control was used to normalize the results. The percentage of LDH release was calculated based on the absorbance readings, using the formula: (sample absorbance − blank absorbance)/(maximum control absorbance − blank absorbance) × 100%.

[5] = system: H69 human lung carcinoma cells; experiment: MTT cell viability assay in H69 cells; assay type: cell-based; settings: NCI-H69, 24 h, normalized to untreated control
Description: as §2
(§6) The A549 non-small cell human lung carcinoma cells (ATCC CCL-185), H69 (HTB-19), H69AR (CRL-11351) were obtained from the American Type Culture Collection (Rockville, MD, USA). […] All cells were cultivated in Dulbecco’s Modified Eagle Medium/Nutrient Mixture F-12 (DMEM/F-12) (Gibco, Waltham, MA, USA), 10% fetal bovine serum (FBS) (Gibco, Waltham, MA, USA), 100 U/mL penicillin, and 100 μg/mL streptomycin (P/S) (Gibco, Waltham, MA, USA). Culturing conditions were maintained at 37 °C with a humidified atmosphere containing 5% CO2. The culture medium was refreshed every 2–3 days, and cells were passaged upon reaching 70–80% confluence.
as §4

[6] = system: H69AR cells; experiment: MTT cell viability assay in anthracycline-resistant H69AR cells; assay type: cell-based; settings: Homo sapiens, 24 h, normalized to untreated control
Description: as §2, §6, §4

[7] = system: A549 agarose-based spheroids; experiment: AO/PI staining of A549 spheroids; assay type: cell-based, human; settings: 100 µM, 24 h
Description: as §1
After treatment with compounds, spheroids were incubated with 5 µg/mL acridine orange and 5 µg/mL propidium iodide for 30 min at 37 °C in a humidified incubator. Following incubation, the spheroids were washed twice with DPBS to remove excess stain. The stained spheroids were then visualized using the EVOS cell imaging system (Thermo Fisher Scientific, Waltham, MA, USA). The fluorescent images were captured, and the viability of the spheroids was assessed based on the differential staining patterns, with live cells showing green fluorescence (acridine orange) and dead cells displaying red fluorescence (propidium iodide).

Molecule: 3,3′-{[(Phenylmethylene)bis(4-phenylthiazole-2,5-diyl)]bis[(4-acetylphenyl)azanediyl]}dipropionic acid [Compound 13]
- A549 cell viability [1]: 57.6%

Molecule: N.N.[Cl][Pt][Cl] [CP, cisplatin, reference compound]
- IC50 [2]: 5.57 µM
- IC50 ([1]; A549 cells, 24 h, MTT): 11.7 µM

Molecule: CC(=O)c1ccc(N(CCC(=O)O)c2nc(-c3ccccc3)c(C(c3ccc(F)cc3)c3sc(N(CCC(=O)O)c4ccc(C(C)=O)cc4)nc3-c3ccccc3)s2)cc1 [Compound 14, 3,3′-/{[(4-Fluorophenyl)methylene]bis(4-phenylthiazole-5,2-diyl)}bis[(4 acetylphenyl)azanediyl]/dipropionic acid]
- viability at 100 µM [3]: 47.8%

Molecule: C/C(=N/O)c1ccc(N(CCC(=O)O)c2nc(-c3ccccc3)cs2)cc1 [Compound 21, 3-/{4-[1-(Hydroxyimino)ethyl]phenyl}(4-phenylthiazol-2-yl)amino/propanoic acid]
- IC50 ([2]; Homo sapiens): 14.6 µM
- LDH release (cytotoxicity) [4]: 66.7%
- IC50 [3]: 5.42 µM
- viability at 100 µM [3]: 35.3%
- viability at 100 µM [5]: 18.3%
- viability at 100 µM [6]: 23.5%
- spheroid morphology and cell viability by AO/PI staining [7]: partial cell death

Molecule: C/C(=N/O)c1ccc(N(CCC(=O)O)c2nc(-c3ccc(Cl)cc3)cs2)cc1 [Compound 22, 3-/[4-(4-Chlorophenyl)thiazol-2-yl]{4-[1-(hydroxyimino)ethyl]phenyl}amino/propanoic acid]
- IC50 ([2]; Homo sapiens): 38 µM
- LDH release (cytotoxicity) [4]: 40.6%
- IC50 [3]: 2.47 µM
- viability at 100 µM [3]: 37.6%
- viability at 100 µM [5]: 33.9%
- viability at 100 µM [6]: 26.6%
- spheroid morphology and cell viability by AO/PI staining [7]: partial cell death

Molecule: COC(=O)CCN(c1ccc(/C(C)=N\O)cc1)c1nc(-c2ccccc2)cs1 [Compound 23, Methyl 3-/{4-[1-(hydroxyimino)ethyl]phenyl}(4-phenylthiazol-2-yl)amino/propanoate]
- viability at 100 µM [3]: 41.9%

Molecule: COC(=O)CCN(c1ccc(/C(C)=N\O)cc1)c1nc(-c2ccc(Cl)cc2)cs1 [Compound 24, Methyl 3-/[4-(4-chlorophenyl)thiazol-2-yl]{4-[1-(hydroxyimino)ethyl]phenyl}amino/propanoate]
- viability at 100 µM [3]: 77.7%

Molecule: C/C(=N/O)c1ccc(N(CCC(=O)NN)c2nc(-c3ccccc3)cs2)cc1 [Compound 25, 3-/{4-[1-(Hydroxyimino)ethyl]phenyl}(4-phenylthiazol-2-yl)amino/propanehydrazide]
- IC50 ([2]; Homo sapiens): 10.7 µM
- LDH release (cytotoxicity) [4]: 72.1%
- IC50 [3]: 8.05 µM
- viability at 100 µM [3]: 25%
- viability at 100 µM [5]: 27.7%
- viability at 100 µM [6]: 48.4%
- spheroid morphology and cell viability by AO/PI staining [7]: substantial disruption of spheroid architecture and widespread PI-positive staining

Molecule: C/C(=N/O)c1ccc(N(CCC(=O)NN)c2nc(-c3ccc(Cl)cc3)cs2)cc1 [Compound 26, 3-/[4-(4-Chlorophenyl)thiazol-2-yl]{4-[1-(hydroxyimino)ethyl]phenyl}amino/propanehydrazide]
- IC50 ([2]; Homo sapiens): 13.8 µM
- LDH release (cytotoxicity) [4]: 89.9%
- IC50 [3]: 25.4 µM
- viability at 100 µM [3]: 30.5%
- viability at 100 µM [5]: 67%
- viability at 100 µM [6]: 15.4%
- spheroid morphology and cell viability by AO/PI staining [7]: substantial disruption of spheroid architecture and widespread PI-positive staining

Molecule: CC(=NNc1ccccc1)c1ccc(N(CCC(=O)O)c2nc(-c3ccccc3)cs2)cc1 [Compound 27, 3-/{4-[1-(2-Phenylhydrazineylidene)ethyl]phenyl}(4-phenylthiazol-2-yl)amino/propanoic acid]
- A549 cell viability [1]: 82.4–100%

Molecule: CC(=NNc1ccccc1)c1ccc(N(CCC(=O)O)c2nc(-c3ccc(Cl)cc3)cs2)cc1 [Compound 28, 3-/[4-(4-Chlorophenyl)thiazol-2-yl]{4-[1-(2-phenylhydrazineylidene)ethyl]phenyl}amino/propanoic acid]
- A549 cell viability [1]: 82.4–100%

Molecule: COC(=O)CCN(c1ccc(C(C)=O)cc1)c1nc(-c2ccccc2)cs1 [Compound 29, Methyl 3-[(4-acetylphenyl)(4-phenylthiazol-2-yl)amino]propanoate]
- viability at 100 µM [3]: 82.4 to 100%

Molecule: COC(=O)CCN(c1ccc(C(C)=O)cc1)c1nc(-c2ccc(Cl)cc2)cs1 [Compound 30, Methyl 3-{(4-acetylphenyl)[4-(4-chlorophenyl)thiazol-2-yl]amino}propanoate]
- viability at 100 µM [3]: 82.4 to 100%

Molecule: CC(=NN)c1ccc(N(CCC(=O)NN)c2nc(-c3ccccc3)cs2)cc1 [Compound 31, 3-{[4-(1-Hydrazineylideneethyl)phenyl](4-phenylthiazol-2-yl)amino}propanehydrazide]
- viability at 100 µM [3]: 67.1%

Molecule: CC(=NN)c1ccc(N(CCC(=O)NN)c2nc(-c3ccc(Cl)cc3)cs2)cc1 [Compound 32, 3-{[4-(4-Chlorophenyl)thiazol-2-yl][4-(1-hydrazineylideneethyl)phenyl]amino}propanehydrazide]
- viability at 100 µM [3]: 84%

Molecule: COc1cccc2c1C(=O)c1c(O)c3c(c(O)c1C2=O)C[C@@](O)(C(=O)CO)C[C@@H]3O[C@H]1C[C@H](N)[C@H](O)[C@H](C)O1 [DOX, doxorubicin, reference compound]
- IC50 ([2]; Homo sapiens): 3.82 µM
- IC50 [3]: 3.02 µM
